Laboratory results published in patent US9546164B2 (GENENTECH, INC., priority 2013, dated 2017).
pIC50: −log10 of the molar value. Where a name gives a salt, the structure may show the parent alone. Read-outs that look alike come from different tables or passages of the source.

Target: hNav1.7 (Homo sapiens (Human), UniProt Q15858)
Assay: Tritiated sulfonamide competitive binding to membranes from cells expressing hNav1.7 and the β1 subunit;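 also: Filter-bound radioactivity counted by liquid scintillation, nonspecific binding defined with excess unlabelled ligand, IC50 fitted to percent inhibition of specific binding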
[1] = read-out: Ligand Binding Assay, 100 pM [3H]compound, membranes with hNav1.7 and β1 subunit, 18 h, room temperature

Chain of hNav1.7 (Q15858 other isoform, or with tags, fused parts or gaps): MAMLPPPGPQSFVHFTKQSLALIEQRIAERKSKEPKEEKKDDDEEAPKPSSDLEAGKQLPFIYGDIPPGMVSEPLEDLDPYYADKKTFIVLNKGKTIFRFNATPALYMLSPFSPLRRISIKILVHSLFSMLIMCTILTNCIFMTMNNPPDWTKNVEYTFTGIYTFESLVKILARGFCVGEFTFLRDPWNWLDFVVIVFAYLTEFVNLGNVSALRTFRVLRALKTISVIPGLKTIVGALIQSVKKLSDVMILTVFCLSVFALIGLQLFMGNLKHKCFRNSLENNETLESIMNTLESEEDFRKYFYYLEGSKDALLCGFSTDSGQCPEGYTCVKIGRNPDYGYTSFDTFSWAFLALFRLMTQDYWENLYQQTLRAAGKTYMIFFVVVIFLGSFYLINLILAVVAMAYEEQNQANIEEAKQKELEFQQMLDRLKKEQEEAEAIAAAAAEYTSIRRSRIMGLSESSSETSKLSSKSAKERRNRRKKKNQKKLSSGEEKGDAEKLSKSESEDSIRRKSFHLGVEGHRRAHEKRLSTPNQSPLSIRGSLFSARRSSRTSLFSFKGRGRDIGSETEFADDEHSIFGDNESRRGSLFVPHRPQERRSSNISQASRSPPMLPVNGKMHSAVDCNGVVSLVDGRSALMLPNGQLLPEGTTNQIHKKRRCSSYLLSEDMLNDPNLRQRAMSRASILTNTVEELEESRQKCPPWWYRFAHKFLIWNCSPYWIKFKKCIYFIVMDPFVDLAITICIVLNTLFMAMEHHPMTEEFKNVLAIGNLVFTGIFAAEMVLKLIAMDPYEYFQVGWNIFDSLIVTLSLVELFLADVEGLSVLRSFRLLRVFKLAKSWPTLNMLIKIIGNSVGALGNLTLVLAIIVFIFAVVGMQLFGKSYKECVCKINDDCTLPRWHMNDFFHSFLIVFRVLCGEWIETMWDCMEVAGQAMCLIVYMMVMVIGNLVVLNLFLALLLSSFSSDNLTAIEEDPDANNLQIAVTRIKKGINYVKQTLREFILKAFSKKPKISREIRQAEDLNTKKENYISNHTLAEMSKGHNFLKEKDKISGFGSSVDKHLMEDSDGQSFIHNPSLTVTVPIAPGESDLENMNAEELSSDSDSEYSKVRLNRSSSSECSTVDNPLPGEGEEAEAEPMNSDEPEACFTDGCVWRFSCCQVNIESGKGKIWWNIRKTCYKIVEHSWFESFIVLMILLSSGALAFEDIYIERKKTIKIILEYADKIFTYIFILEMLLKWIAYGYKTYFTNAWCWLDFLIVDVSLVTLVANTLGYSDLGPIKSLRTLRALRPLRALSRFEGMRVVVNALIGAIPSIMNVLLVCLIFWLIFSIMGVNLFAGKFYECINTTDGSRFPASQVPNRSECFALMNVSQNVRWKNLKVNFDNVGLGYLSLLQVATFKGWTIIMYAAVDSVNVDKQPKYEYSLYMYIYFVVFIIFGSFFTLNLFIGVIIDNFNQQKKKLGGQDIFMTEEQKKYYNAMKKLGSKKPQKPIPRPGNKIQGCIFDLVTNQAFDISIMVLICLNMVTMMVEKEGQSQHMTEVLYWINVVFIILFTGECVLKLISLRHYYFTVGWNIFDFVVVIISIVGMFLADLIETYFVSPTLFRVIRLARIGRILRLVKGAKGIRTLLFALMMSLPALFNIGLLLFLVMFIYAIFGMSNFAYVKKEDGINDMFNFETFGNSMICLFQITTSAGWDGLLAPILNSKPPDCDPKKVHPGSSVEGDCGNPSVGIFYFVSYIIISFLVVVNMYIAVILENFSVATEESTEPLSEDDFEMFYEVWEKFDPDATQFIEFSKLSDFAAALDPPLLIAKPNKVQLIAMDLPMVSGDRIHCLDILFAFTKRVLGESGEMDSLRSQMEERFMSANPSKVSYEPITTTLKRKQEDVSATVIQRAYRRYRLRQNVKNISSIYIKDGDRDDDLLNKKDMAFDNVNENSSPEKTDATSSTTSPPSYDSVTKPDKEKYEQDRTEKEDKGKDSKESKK
Chain of hNav1.7 (Q07699 19-218 partner): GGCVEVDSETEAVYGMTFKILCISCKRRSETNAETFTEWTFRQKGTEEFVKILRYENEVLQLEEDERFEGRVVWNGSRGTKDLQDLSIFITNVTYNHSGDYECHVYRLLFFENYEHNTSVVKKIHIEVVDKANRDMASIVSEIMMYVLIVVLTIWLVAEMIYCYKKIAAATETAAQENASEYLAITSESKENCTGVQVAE

Row | Compound | pIC50 [1] | pIC50
1 | CS(=O)(=O)NC(=O)c1cc(C2CC2)c(OCC2CCN(C(c3cc(Cl)cc(Cl)c3)C(F)(F)F)CC2)cc1F (stereo not shown) [Example 299, 5-cyclopropyl-4-((1-(1-(3,5-dichlorophenyl)-2,2,2-trifluoroethyl)piperidin-4-yl)methoxy)-2-fluoro-N-(methylsulfonyl)benzamide] | 8.72 | 
2 | CC1(COc2cc(F)c(C(=O)NS(C)(=O)=O)cc2C2CC2)CCN(C(=O)c2cc(Cl)ccc2Cl)CC1 [Example 578, 5-cyclopropyl-4-((1-(2,5-dichlorobenzoyl)-4-methylpiperidin-4-yl)methoxy)-2-fluoro-N-(methylsulfonyl)benzamide] | 6.74 | 
3 | COC[C@H](c1cc(Cl)cc(Cl)c1)N1CCC(C)(COc2cc(F)c(C(=O)NS(C)(=O)=O)cc2C2CC2)CC1 (single isomer, unassigned) [Example 173] | 8.41 | 
4 | CS(=O)(=O)NC(=O)c1cc(C2CC2)c(CN2CCC([S+]([O-])c3cc(Cl)cc(Cl)c3)CC2)cc1F (stereo not shown) [Example 534, 5-cyclopropyl-4-((4-((3,5-dichlorophenyl)sulfinyl)piperidin-1-yl)methyl)-2-fluoro-N-(methylsulfonyl)benzamide, trifluoroacetic acid salt] |  | 6.06
5 | CC1(COc2cc(F)c(C(=O)NS(=O)(=O)C3CC3)cc2C2CC2)CN(C(c2ccccc2)c2cc(Cl)cc(Cl)c2)C1 (stereo not shown) [Example 421, 5-cyclopropyl-N-(cyclopropylsulfonyl)-4-((1-((3,5-dichlorophenyl)(phenyl)methyl)-3-methylazetidin-3-yl)methoxy)-2-fluorobenzamide, trifluoroacetic acid salt] | 8.60 | 
6 | O=C(NS(=O)(=O)C1CC1)c1cc(C2CC2)c(CN2CC(Oc3cc(Cl)cc(Cl)c3)C2)cc1F [Example 545, 5-cyclopropyl-N-(cyclopropylsulfonyl)-4-((3-(3,5-dichlorophenoxy)azetidin-1-yl)methyl)-2-fluorobenzamide, trifluoroacetic acid salt] |  | 8.47
7 | CS(=O)(=O)NC(=O)c1cc(C2CC2)c(OCC2CCN(S(=O)(=O)c3ccc(F)c(Cl)c3)CC2)cc1F [Example 382, 4-((1-((3-chloro-4-fluorophenyl)sulfonyl)piperidin-4-yl)methoxy)-5-cyclopropyl-2-fluoro-N-(methylsulfonyl)benzamide] | 7.39 | 
8 | CS(=O)(=O)NC(=O)c1cc(C2CC2)c(OCC2CCN(S(=O)(=O)c3ccc(C(F)(F)F)cc3Cl)CC2)cc1F [Example 384, 4-((1-((2-chloro-4-(trifluoromethyl)phenyl)sulfonyl)piperidin-4-yl)methoxy)-5-cyclopropyl-2-fluoro-N-(methylsulfonyl)benzamide] | 7.79 | 
9 | CC1(COc2cc(F)c(C(=O)NS(C)(=O)=O)cc2C2CC2)CN(C(c2ccccc2)c2cc(Cl)cc(Cl)c2)C1 (stereo not shown) [Example 420, 5-cyclopropyl-4-((1-((3,5-dichlorophenyl)(phenyl)methyl)-3-methylazetidin-3-yl)methoxy)-2-fluoro-N-(methylsulfonyl)benzamide, trifluoroacetic acid salt] | 8.62 | 
10 | COCC(c1cc(Cl)cc(Cl)c1)N1CCC(COc2cc(F)c(C(=O)NS(C)(=O)=O)cc2C2CC2)CC1 (stereo not shown) [Example 90, 5-Cyclopropyl-4-((1-(1-(3,5-dichlorophenyl)-2-methoxyethyl)piperidin-4-yl)methoxy)-2-fluoro-N-(methylsulfonyl)benzamide] | 8.54 | 
11 | CS(=O)(=O)NC(=O)c1cc(C2CC2)c(OCC2CN([C@H](c3ccccc3)c3ccc(C#N)cc3)C2)cc1F [Example 111, (R)-4-((1-((4-Cyanophenyl)(phenyl)methyl)azetidin-3-yl)methoxy)-5-cyclopropyl-2-fluoro-N-(methylsulfonyl)benzamide] |  | 7.69
12 | C[C@H](c1cc(Cl)cc(Cl)c1)N1CC(C)(COc2cc(F)c(C(=O)NS(C)(=O)=O)cc2C2CC2)C1 (single isomer, unassigned) [Example 185] | 8.15 | 
13 | O=C(NS(=O)(=O)C1CC1)c1cc(C2CC2)c(OCC2CCN(Cc3cc(C(F)(F)F)cc(C4CC4)n3)CC2)cc1F [Example 308] | 8.22 | 
14 | CS(=O)(=O)NC(=O)c1cc(C2CC2)c(CN2CCN(Cc3cc(Cl)cc(Cl)c3)CC2)cc1F [Example 517, 5-cyclopropyl-4-((4-(3,5-dichlorobenzyl)piperazin-1-yl)methyl)-2-fluoro-N-(methylsulfonyl)benzamide, trifluoroacetic acid salt] |  | 7.82
15 | C[C@@H]1CC[C@@H](COc2cc(F)c(C(=O)NS(C)(=O)=O)cc2C2CC2)CN1Cc1cc(Cl)cc(Cl)c1 [Example 341, 5-cyclopropyl-4-(((3R,6R)-1-(3,5-dichlorobenzyl)-6-methylpiperidin-3-yl)methoxy)-2-fluoro-N-(methylsulfonyl)benzamide, trifluoroacetic acid salt] | 8.36 | 

Results, then the compound that gave them:

Row | pIC50 [1] | pIC50 | Compound
16 | 8.72 |  | C[C@@H]1CC[C@@H](Oc2cc(F)c(C(=O)NS(=O)(=O)C3CC3)cc2C2CC2)CN1Cc1ccc(F)cc1Cl [Example 323, 4-(((3R,6R)-1-(2-chloro-4-fluorobenzyl)-6-methylpiperidin-3-yl)oxy)-5-cyclopropyl-N-(cyclopropylsulfonyl)-2-fluorobenzamide]
17 |  | 8.15 | O=C(NS(=O)(=O)N1CCC1)c1cc(C2CC2)c(O[C@@H]2CCCN(Cc3cc(Cl)cc(Cl)c3)C2)cc1F [Example 5, (R)—N-(azetidin-1-ylsulfonyl)-5-cyclopropyl-4-((1-(3,5-dichlorobenzyl)piperidin-3-yl)oxy)-2-fluoroenzamide]
18 | 8.54 |  | CC(C)(C)c1ccc(CN2CCC[C@@H](Oc3cc(F)c(C(=O)NS(C)(=O)=O)cc3C3CC3)C2)cc1 [Example 425, (R)-4-((1-(4-(tert-butyl)benzyl)piperidin-3-yl)oxy)-5-cyclopropyl-2-fluoro-N-(methylsulfonyl)benzamide, trifluoroacetic acid salt]
19 |  | 7.32 | O=C(NS(=O)(=O)N1CCC1)c1cc(C2CC2)c(O[C@@H]2CCCN(CC3CCCCC3)C2)cc1F [Example 11, (R)—N-(azetidin-1-ylsulfonyl)-4-((1-(cyclohexylmethyl)piperidin-3-yl)oxy)-5-cyclopropyl-2-fluorobenzamide]
20 | 7.78 |  | O=C(NS(=O)(=O)N1CCC1)c1cc(C2CC2)c(OC[C@H]2CCCN(Cc3ccc(F)cc3Cl)C2)cc1F [Example 339, (S)—N-(azetidin-1-ylsulfonyl)-4-((1-(2-chloro-4-fluorobenzyl)piperidin-3-yl)methoxy)-5-cyclopropyl-2-fluorobenzamide, trifluoroacetic acid salt]
21 | 7.28 |  | O=C(NS(=O)(=O)C1CC1)c1cc(C2CC2)c(O[C@@H]2CCCN(c3ccc(F)cn3)C2)cc1F [Example 494, (R)-5-cyclopropyl-N-(cyclopropylsulfonyl)-2-fluoro-4-((1-(5-fluoropyridin-2-yl)piperidin-3-yl)oxy)benzamide, trifluoroacetic acid salt]
22 | 8.28 |  | O=C(NS(=O)(=O)N1CCC1)c1cc(C2CC2)c(OCC2CCN(C(c3ccc(F)cc3)c3ccc(F)cc3)CC2)cc1F [Example 419, N-azetidin-1-ylsulfonyl)-4-((1-(bis(4-fluorophenyl)methyl)piperidin-4-yl)methoxy)-5-cyclopropyl-2-fluorobenzamide, trifluoroacetic acid salt]
